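Tested at 5 concentrations; 48 h exposure; 96-well plates; endpoints linearly interpolated, else capped at highest concentration. Definition used: TGI = concentration required for complete inhibition of growth.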
Experiments:
Assay in all cases: NCI anticancer screen, dose series, 48 h
RPMI-8226 leukemia = test system: RPMI-8226 leukemia
SF-268 CNS = test system: SF-268 CNS
SK-MEL-2 melanoma = test system: SK-MEL-2 melanoma
SN12C renal = test system: SN12C renal
A549 NSCLC = test system: A549 NSCLC
NCI-H23 lung = test system: NCI-H23 lung
MOLT-4 leukemia = test system: MOLT-4 leukemia
HCT-116 colon = test system: HCT-116 colon
EKVX NSCLC = test system: EKVX NSCLC
IGROV1 ovarian = test system: IGROV1 ovarian
BT-549 breast = test system: BT-549 breast
ACHN renal = test system: ACHN renal
SK-OV-3 ovarian = test system: SK-OV-3 ovarian
OVCAR-4 ovarian = test system: OVCAR-4 ovarian
MDA-N = test system: MDA-N
HCC-2998 colon = test system: HCC-2998 colon
COLO 205 colon = test system: COLO 205 colon
TK-10 renal = test system: TK-10 renal
HOP-62 NSCLC = test system: HOP-62 NSCLC
A498 renal = test system: A498 renal
KM12 colon = test system: KM12 colon
SW-620 colon = test system: SW-620 colon
NCI-H460 lung = test system: NCI-H460 lung
MCF7 breast = test system: MCF7 breast
NCI-H522 lung = test system: NCI-H522 lung
CAKI-1 renal = test system: CAKI-1 renal
HL-60(TB) leukemia = test system: HL-60(TB) leukemia
UACC-257 melanoma = test system: UACC-257 melanoma
HOP-92 NSCLC = test system: HOP-92 NSCLC
MALME-3M melanoma = test system: MALME-3M melanoma
MDA-MB-435 = test system: MDA-MB-435
T-47D breast = test system: T-47D breast
MDA-MB-231 breast = test system: MDA-MB-231 breast
HT29 colon = test system: HT29 colon
DU-145 prostate = test system: DU-145 prostate
HS 578T breast = test system: HS 578T breast
OVCAR-5 ovarian = test system: OVCAR-5 ovarian
K-562 leukemia = test system: K-562 leukemia
786-0 renal = test system: 786-0 renal
SK-MEL-5 melanoma = test system: SK-MEL-5 melanoma
M14 melanoma = test system: M14 melanoma
SK-MEL-28 melanoma = test system: SK-MEL-28 melanoma
UO-31 renal = test system: UO-31 renal
SNB-19 CNS = test system: SNB-19 CNS
NCI-H226 lung = test system: NCI-H226 lung
HCT-15 colon = test system: HCT-15 colon
SF-295 CNS = test system: SF-295 CNS
LOX IMVI melanoma = test system: LOX IMVI melanoma
RXF 393 renal = test system: RXF 393 renal
OVCAR-3 ovarian = test system: OVCAR-3 ovarian
CCRF-CEM leukemia = test system: CCRF-CEM leukemia
U251 CNS = test system: U251 CNS
SF-539 CNS = test system: SF-539 CNS
PC-3 prostate = test system: PC-3 prostate
UACC-62 melanoma = test system: UACC-62 melanoma
NCI/ADR-RES ovarian = test system: NCI/ADR-RES ovarian
OVCAR-8 ovarian = test system: OVCAR-8 ovarian
SNB-75 CNS = test system: SNB-75 CNS

C=C1CC/C=C(/C(=O)O)CC[C@H]2[C@@H]1CC2(C)C
TGI (RPMI-8226 leukemia): > 100 µM | TGI (SF-268 CNS): > 100 µM | TGI (SK-MEL-2 melanoma): > 100 µM | TGI (SN12C renal): > 100 µM | TGI (A549 NSCLC): > 100 µM | TGI (NCI-H23 lung): > 100 µM | TGI (MOLT-4 leukemia): > 100 µM | TGI (HCT-116 colon): > 100 µM | TGI (EKVX NSCLC): > 100 µM | TGI (IGROV1 ovarian): > 100 µM | TGI (BT-549 breast): > 100 µM | TGI (ACHN renal): > 100 µM | TGI (SK-OV-3 ovarian): > 100 µM | TGI (OVCAR-4 ovarian): > 100 µM | TGI (MDA-N): > 100 µM | TGI (HCC-2998 colon): > 100 µM | TGI (COLO 205 colon): > 100 µM | TGI (TK-10 renal): > 100 µM | TGI (HOP-62 NSCLC): > 100 µM | TGI (A498 renal): > 100 µM | TGI (KM12 colon): > 100 µM | TGI (SW-620 colon): > 100 µM | TGI (NCI-H460 lung): > 100 µM | TGI (MCF7 breast): > 100 µM | TGI (NCI-H522 lung): > 100 µM | TGI (CAKI-1 renal): > 100 µM | TGI (HL-60(TB) leukemia): > 100 µM | TGI (UACC-257 melanoma): > 100 µM | TGI (HOP-92 NSCLC): > 100 µM | TGI (MALME-3M melanoma): > 100 µM | TGI (MDA-MB-435): > 100 µM | TGI (T-47D breast): > 100 µM | TGI (MDA-MB-231 breast): > 100 µM | TGI (HT29 colon): > 100 µM | TGI (DU-145 prostate): > 100 µM | TGI (HS 578T breast): > 100 µM | TGI (OVCAR-5 ovarian): > 100 µM | TGI (K-562 leukemia): > 100 µM | TGI (786-0 renal): > 100 µM | TGI (SK-MEL-5 melanoma): > 100 µM | TGI (M14 melanoma): > 100 µM | TGI (SK-MEL-28 melanoma): > 100 µM | TGI (UO-31 renal): > 100 µM | TGI (SNB-19 CNS): > 100 µM | TGI (NCI-H226 lung): > 100 µM | TGI (HCT-15 colon): > 100 µM | TGI (SF-295 CNS): > 100 µM | TGI (LOX IMVI melanoma): > 100 µM | TGI (RXF 393 renal): > 100 µM | TGI (OVCAR-3 ovarian): > 100 µM | TGI (CCRF-CEM leukemia): > 100 µM | TGI (U251 CNS): > 100 µM | TGI (SF-539 CNS): > 100 µM | TGI (PC-3 prostate): > 100 µM | TGI (UACC-62 melanoma): > 100 µM

c1ccc2nc3[nH]c4ccccc4c3cc2c1
TGI (RPMI-8226 leukemia): 2.53 µM | TGI (SF-268 CNS): 7.3 µM | TGI (SK-MEL-2 melanoma): 16 µM | TGI (SN12C renal): 3.34 µM | TGI (A549 NSCLC): 9.14 µM | TGI (NCI-H23 lung): 1.81 µM | TGI (NCI/ADR-RES ovarian): 8.28 µM | TGI (MOLT-4 leukemia): 1.36 µM | TGI (EKVX NSCLC): 4.8 µM | TGI (IGROV1 ovarian): 2.57 µM | TGI (BT-549 breast): 2.87 µM | TGI (ACHN renal): 12.2 µM | TGI (SK-OV-3 ovarian): 79.9 µM | TGI (OVCAR-4 ovarian): 2.79 µM | TGI (MDA-N): 2 µM | TGI (HCC-2998 colon): 2.85 µM | TGI (COLO 205 colon): 1.53 µM | TGI (TK-10 renal): 10.7 µM | TGI (A498 renal): 43.1 µM | TGI (KM12 colon): 1.81 µM | TGI (NCI-H460 lung): 1.46 µM | TGI (NCI-H522 lung): 1.52 µM | TGI (CAKI-1 renal): 3.69 µM | TGI (HL-60(TB) leukemia): 0.726 µM | TGI (UACC-257 melanoma): 2.47 µM | TGI (HOP-92 NSCLC): 35.5 µM | TGI (MALME-3M melanoma): 2.12 µM | TGI (MDA-MB-435): 1.97 µM | TGI (MDA-MB-231 breast): 2.64 µM | TGI (HT29 colon): 1.75 µM | TGI (DU-145 prostate): 13.1 µM | TGI (HS 578T breast): 5.84 µM | TGI (OVCAR-5 ovarian): 20.4 µM | TGI (K-562 leukemia): > 100 µM | TGI (786-0 renal): 1.16 µM | TGI (SK-MEL-5 melanoma): 2.01 µM | TGI (M14 melanoma): 1.85 µM | TGI (UO-31 renal): 13.1 µM | TGI (SNB-19 CNS): 4.43 µM | TGI (NCI-H226 lung): 18.3 µM | TGI (HCT-15 colon): 1.38 µM | TGI (SF-295 CNS): 2.24 µM | TGI (LOX IMVI melanoma): 1.16 µM | TGI (RXF 393 renal): 2.66 µM | TGI (OVCAR-8 ovarian): 2.35 µM | TGI (CCRF-CEM leukemia): > 100 µM | TGI (U251 CNS): 1.99 µM | TGI (SF-539 CNS): 1.23 µM | TGI (PC-3 prostate): 4.09 µM | TGI (UACC-62 melanoma): 2.2 µM | TGI (SNB-75 CNS): 6.44 µM

Source: PubChem BioAssay (NCI)
